Experimental data from patent US4971982A, “Benzopyran derivatives” (Hoffmann-La Roche Inc., priority 1987, dated 1990).

Tested on: potassium channel
Assay: potassium channel activating activity: reduction of potassium chloride-induced contractions of rat hepatic portal veins
Conditions: isolated hepatic portal veins, male Sprague-Dawley rats; Krebs solution, 37° C.; further 20 mmol of potassium chloride; isometric tension; read-out: IC50 (concentration of test substance producing a half-maximal reduction of the contractions caused by the potassium chloride)
Method: Hepatic portal veins are removed from male Sprague-Dawley rats and suspended in organ baths under an initial tension of 0.5 g for the isometric recording of tension. The veins are incubated in Krebs solution (consisting of 118 mM of sodium chloride, 25 mM of sodium hydrogen carbonate, 10.5 mM of D-glucose, 4.7 mM of potassium chloride, 0.4 mM of magnesium sulphate, 1.2 mM of potassium dihydrogen phosphate and 2.5 mM of calcium chloride) which is gassed with 95% oxygen and 5% carbon dioxide and maintained at 37° C. After incubation for 0.5 hour to 1 hour a further 20 mmol of potassium chloride is added followed after 0.25 hour to 0.5 hour by increasing concentrations of the test substance. The activity of the test substance is expressed as the IC50 value, which is the concentration of test substance producing a half-maximal reduction of the contractions caused by the potassium chloride.

IC50 [µM]	SMILES
0.28 ± 0.03	CC1(C)Oc2ccc(C#N)cc2[C@@H](c2cccc[n+]2[O-])[C@@H]1O (racemic) [Compound F, rac-trans-2-(6-cyano-3,4-dihydro-3-hydroxy-2,2-dimethyl-2H-1-benzopyran-4-yl)pyridine N-oxide]
3.1 ± 0.8	CC1(C)C=C(c2cc(C#N)ccc2O)c2cc(C#N)ccc2O1 [Compound H, 4-(5-cyano-2-hydroxyphenyl)-2,2-dimethyl-2H-1-benzopyran-6-carbonitrile]
0.019 ± 0.0012	CCC1(C)C=C(c2cccc[n+]2[O-])c2cc(C#N)ccc2O1 (centres unmarked) [Compound G, 2-(6-cyano-2-ethyl-2-methyl-2H-1-benzopyran-4-yl)pyridine N-oxide]
0.038 ± 0.002	CC1(C)C=C(c2cccc[n+]2[O-])c2cc(C#N)ccc2O1 [Compound B, 2-(6-cyano-2,2-dimethyl-2H-1-benzopyran-4-yl)pyridine N-oxide]
0.015 ± 0.0005	CC1(C)C=C(c2ccc(-c3ccccc3)c[n+]2[O-])c2cc(C#N)ccc2O1 [Compound E, 2-(6-cyano-2,2-dimethyl-2H-1-benzopyran-4-yl)-5-phenylpyridine N-oxide]

Further lines, the molecule ahead of its results:

SMILES	IC50 [µM]
CC1(C)CC(c2cccc[n+]2[O-])c2cc(C#N)ccc2O1 (centres unmarked) [Compound A, 2-(6-cyano-3,4-dihydro-2,2-dimethyl-2H-1-benzopyran-4-yl)pyridine N-oxide]	0.16 ± 0.02
CC(=O)c1ccc2c(c1)C(c1cccc[n+]1[O-])CC(C)(C)O2 (centres unmarked) [Compound D, 2-(6-acetyl-3,4-dihydro-2,2-dimethyl-2H-1-benzopyran-4-yl)pyridine N-oxide]	0.56 ± 0.07
CC1(C)CC(c2cccc[n+]2[O-])c2cc([N+](=O)[O-])ccc2O1 (centres unmarked) [Compound C, 2-(3,4-dihydro-2,2-dimethyl-6-nitro-2H-1-benzopyran-4-yl)pyridine N-oxide]	0.014 ± 0.001
